The term IC50 denotes the midpoint of a concentration-inhibition curve. A word on the inhibition: it is the change of the read-out against control, counted positive when it falls.

Results on 14 compounds are retold here after ChEMBL document CHEMBL4842385, “Indirubin Derivatives as Dual Inhibitors Targeting Cyclin-Dependent Kinase and Histone Deacetylase for Treating Cancer” (J Med Chem, 2021).

The first test relates to MCF7. Kind of test: Antiproliferative activity against human MCF7 cells assessed as cell growth inhibition measured after 48 hrs by CCK8 assay. The format is functional, cell-based. The conditions noted are these: MCF7, 48 h. Background: Formazan colour is commonly taken as a measure of viable cells.
For `CC(=O)c1c(C)c2cnc(Nc3ccc(N4CCNCC4)cn3)nc2n(C2CCCC2)c1=O` [PALBOCICLIB], the concentration for half-maximal inhibition (IC50) was greater than 10 µM.
As to `O=C1Nc2ccccc2/C1=C1/Nc2ccccc2C1=O` [INDIRUBIN], the IC50 is greater than 10 µM.

The target of a further test is CDK4/Cyclin D3 (Homo sapiens) (UniProt P11802+P30281). The conditions noted are these: dose 100.0 nM, time 10.0 min.
On to `O=C(CCCO/N=C1/C(=C2/C(=O)Nc3ccc(Br)cc32)Nc2ccccc21)NO`, for which the inhibition is -0.2%.
Still for that read-out and setting: as for `O=C(CCCCCCO/N=C1/C(=C2/C(=O)Nc3ccc([N+](=O)[O-])cc32)Nc2ccccc21)NO`, the figure is 1.1%; as for `COc1ccc2c(c1)NC(=O)/C2=C1\Nc2ccccc2\C1=N/OCCCCCCC(=O)NO`, -2.5%.
In the case of `O=C(CCCCCCO/N=C1/C(=C2/C(=O)Nc3ccc(I)cc32)Nc2ccccc21)NO`, the inhibition is 9.7%.
Still for that read-out and setting: for `O=C(CO/N=C1/C(=C2/C(=O)Nc3ccccc32)Nc2ccccc21)NO` the value was 26.2%.
Still for that read-out and setting: for `O=C(CCCCO/N=C1/C(=C2/C(=O)Nc3ccc(Br)cc32)Nc2ccccc21)NO` the value was 17.9%.
On the same count and under the same terms, for `Cc1cccc2c1NC(=O)/C2=C1\Nc2ccccc2\C1=N/OCCCCCCC(=O)NO` the value was 2%.
`O=C1Nc2ccccc2/C1=C1/Nc2ccccc2/C1=N\O`: the inhibition was -1.5%.
On the same count and under the same terms, as for `O=C(CCCCCCCO/N=C1/C(=C2/C(=O)Nc3ccccc32)Nc2ccccc21)NO`, the figure is -4.5%.
Still for that read-out and setting: for `O=C(CCCCCCO/N=C1/C(=C2/C(=O)Nc3ccccc32)Nc2ccccc21)NO` the value was 6.1%.
On to `COc1ccc2c(c1)/C(=C1/Nc3ccccc3/C1=N\OCCCCCCC(=O)NO)C(=O)N2`, for which the inhibition is 13%.
Same read-out and setting: for `O=C(CCCCCO/N=C1/C(=C2/C(=O)Nc3ccc(Br)cc32)Nc2ccccc21)NO` the value was 3.5%; for `O=C1Nc2ccccc2/C1=C1/Nc2ccccc2C1=O` [INDIRUBIN], 1%.

The next test relates to A549. The test can be described thus: Synergistic antiproliferative activity against human A549 cells assessed as combination index in presence of 2.5 to 46 uM tubastatin-A by Chou-Talalay method. Conditions: dose 2.5-46 µM. Format: functional.
With `CC(=O)c1c(C)c2cnc(Nc3ccc(N4CCNCC4)cn3)nc2n(C2CCCC2)c1=O` [PALBOCICLIB], the CI was 0.9.

The test system of the next test is A549. The test can be described thus: Antiproliferative activity against human A549 cells assessed as cell growth inhibition measured after 48 hrs by CCK8 assay. Format: functional, cell-based. Conditions: A549, 48 h.
Take `CC(=O)c1c(C)c2cnc(Nc3ccc(N4CCNCC4)cn3)nc2n(C2CCCC2)c1=O` [PALBOCICLIB]: the IC50 turned out to be 9.4 µM.
The same measure, in the same setting: as for `O=C1Nc2ccccc2/C1=C1/Nc2ccccc2C1=O` [INDIRUBIN], the figure is greater than 10 µM.

The test system of another test is HepG2. Kind of test: Antiproliferative activity against human HepG2 cells assessed as cell growth inhibition measured after 48 hrs by CCK8 assay. Conditions: HepG2, 48 h. The format is functional, cell-based.
Regarding `CC(=O)c1c(C)c2cnc(Nc3ccc(N4CCNCC4)cn3)nc2n(C2CCCC2)c1=O` [PALBOCICLIB], the IC50 was greater than 10 µM.
As for `O=C1Nc2ccccc2/C1=C1/Nc2ccccc2C1=O` [INDIRUBIN], the IC50 is greater than 10 µM.

Another test addresses Histone deacetylase (Homo sapiens) (UniProt Q13547+O15379+Q9UBN7+Q92769+Q9UQL6+Q8WUI4+Q9BY41+Q96DB2+P56524+Q9UKV0+Q969S8). The conditions noted are these: HeLa, Nucleus, dose 1000.0 nM, time 1.0 hrs.
Turning to `O=C(CCCO/N=C1/C(=C2/C(=O)Nc3ccc(Br)cc32)Nc2ccccc21)NO`, the inhibition was 9.1%.
Same read-out and setting: as for `O=C(CCCCCCO/N=C1/C(=C2/C(=O)Nc3ccc([N+](=O)[O-])cc32)Nc2ccccc21)NO`, the figure is 77.2%; as for `COc1ccc2c(c1)NC(=O)/C2=C1\Nc2ccccc2\C1=N/OCCCCCCC(=O)NO`, 44.7%.
The same measure, in the same setting: as for `O=C(CCCCCCO/N=C1/C(=C2/C(=O)Nc3ccc(I)cc32)Nc2ccccc21)NO`, the figure is 67.3%; as for `O=C(CO/N=C1/C(=C2/C(=O)Nc3ccccc32)Nc2ccccc21)NO`, 19.6%; as for `O=C(CCCCO/N=C1/C(=C2/C(=O)Nc3ccc(Br)cc32)Nc2ccccc21)NO`, 60.2%.
Still for that read-out and setting: for `Cc1cccc2c1NC(=O)/C2=C1\Nc2ccccc2\C1=N/OCCCCCCC(=O)NO` the value was 91.1%; for `O=C1Nc2ccccc2/C1=C1/Nc2ccccc2/C1=N\O`, 15%; for `O=C(CCCCCCCO/N=C1/C(=C2/C(=O)Nc3ccccc32)Nc2ccccc21)NO`, 90.6%.
Take `O=C(CCCCCCO/N=C1/C(=C2/C(=O)Nc3ccccc32)Nc2ccccc21)NO`: the inhibition amounted to 98.1%.
The same measure, in the same setting: for `COc1ccc2c(c1)/C(=C1/Nc3ccccc3/C1=N\OCCCCCCC(=O)NO)C(=O)N2` the value was 88.6%; for `O=C(CCCCCO/N=C1/C(=C2/C(=O)Nc3ccc(Br)cc32)Nc2ccccc21)NO`, 21.4%.
For `O=C1Nc2ccccc2/C1=C1/Nc2ccccc2C1=O` [INDIRUBIN], the inhibition was 17.2%.

For the next test, the target named is CDK6/cyclin D3 (Homo sapiens) (UniProt P30281+Q00534). Conditions: dose 100.0 nM, time 10.0 min.
Consider `O=C(CCCO/N=C1/C(=C2/C(=O)Nc3ccc(Br)cc32)Nc2ccccc21)NO`, for which the inhibition was -0.8%.
On the same count and under the same terms, for `O=C(CCCCCCO/N=C1/C(=C2/C(=O)Nc3ccc([N+](=O)[O-])cc32)Nc2ccccc21)NO` the value was 1%; for `COc1ccc2c(c1)NC(=O)/C2=C1\Nc2ccccc2\C1=N/OCCCCCCC(=O)NO`, 8.3%.
The same measure, in the same setting: for `O=C(CCCCCCO/N=C1/C(=C2/C(=O)Nc3ccc(I)cc32)Nc2ccccc21)NO` the value was 0.8%; for `O=C(CO/N=C1/C(=C2/C(=O)Nc3ccccc32)Nc2ccccc21)NO`, 46.8%.
Turning to `O=C(CCCCO/N=C1/C(=C2/C(=O)Nc3ccc(Br)cc32)Nc2ccccc21)NO`, the inhibition was determined as 8%.
Same read-out and setting: as for `Cc1cccc2c1NC(=O)/C2=C1\Nc2ccccc2\C1=N/OCCCCCCC(=O)NO`, the figure is 4.6%; as for `O=C1Nc2ccccc2/C1=C1/Nc2ccccc2/C1=N\O`, 46.6%.
Turning to `O=C(CCCCCCCO/N=C1/C(=C2/C(=O)Nc3ccccc32)Nc2ccccc21)NO`, the inhibition is -2.7%.
The same measure, in the same setting: for `O=C(CCCCCCO/N=C1/C(=C2/C(=O)Nc3ccccc32)Nc2ccccc21)NO` the value was 6.5%; for `COc1ccc2c(c1)/C(=C1/Nc3ccccc3/C1=N\OCCCCCCC(=O)NO)C(=O)N2`, 3.5%; for `O=C(CCCCCO/N=C1/C(=C2/C(=O)Nc3ccc(Br)cc32)Nc2ccccc21)NO`, -0.7%.
`O=C1Nc2ccccc2/C1=C1/Nc2ccccc2C1=O` [INDIRUBIN]: the inhibition was 25.1%.

A further test addresses CDK2/Cyclin A2 (Homo sapiens) (UniProt P24941+P20248). Conditions: dose 100.0 nM, time 10.0 min.
On to `O=C(CCCCCCO/N=C1/C(=C2/C(=O)Nc3ccc([N+](=O)[O-])cc32)Nc2ccccc21)NO`, for which the inhibition was determined as 33.4%.
The same measure, in the same setting: for `COc1ccc2c(c1)NC(=O)/C2=C1\Nc2ccccc2\C1=N/OCCCCCCC(=O)NO` the value was 4.5%; for `O=C(CCCCCCO/N=C1/C(=C2/C(=O)Nc3ccc(I)cc32)Nc2ccccc21)NO`, 55.7%.
On the same count and under the same terms, as for `O=C(CO/N=C1/C(=C2/C(=O)Nc3ccccc32)Nc2ccccc21)NO`, the figure is 46.7%.
On to `Cc1cccc2c1NC(=O)/C2=C1\Nc2ccccc2\C1=N/OCCCCCCC(=O)NO`, for which the inhibition amounted to 2.1%.
For the compound `O=C1Nc2ccccc2/C1=C1/Nc2ccccc2/C1=N\O`, the inhibition came to 33.9%.
Regarding `O=C(CCCCCCCO/N=C1/C(=C2/C(=O)Nc3ccccc32)Nc2ccccc21)NO`, the inhibition came out at 6.6%.
Same read-out and setting: as for `O=C(CCCCCCO/N=C1/C(=C2/C(=O)Nc3ccccc32)Nc2ccccc21)NO`, the figure is 14.6%; as for `COc1ccc2c(c1)/C(=C1/Nc3ccccc3/C1=N\OCCCCCCC(=O)NO)C(=O)N2`, 54%; as for `O=C1Nc2ccccc2/C1=C1/Nc2ccccc2C1=O` [INDIRUBIN], 8.5%.

For the next test, the system named is A549. Kind of test: Synergistic antiproliferative activity against human A549 cells assessed as combination index in presence of vorinostat by Chou-Talalay method. The format is functional.
Settings: not given
Turning to `CC(=O)c1c(C)c2cnc(Nc3ccc(N4CCNCC4)cn3)nc2n(C2CCCC2)c1=O` [PALBOCICLIB], the CI came out at 0.9.

The next test has as its system K562. Kind of test: Antiproliferative activity against human K562 cells assessed as cell growth inhibition measured after 48 hrs by CCK8 assay. Format: functional, cell-based. The conditions noted are these: K562, 48 h.
For the compound `CC(=O)c1c(C)c2cnc(Nc3ccc(N4CCNCC4)cn3)nc2n(C2CCCC2)c1=O` [PALBOCICLIB], the IC50 was greater than 10 µM.
On the same count and under the same terms, as for `O=C1Nc2ccccc2/C1=C1/Nc2ccccc2C1=O` [INDIRUBIN], the figure is greater than 10 µM.

In the next test the test system is HeLa. The test can be described thus: Antiproliferative activity against human HeLa cells assessed as cell growth inhibition measured after 48 hrs by CCK8 assay. The format is functional, cell-based.
Settings: not given
Regarding `CC(=O)c1c(C)c2cnc(Nc3ccc(N4CCNCC4)cn3)nc2n(C2CCCC2)c1=O` [PALBOCICLIB], the IC50 is greater than 10 µM.
On the same count and under the same terms, as for `O=C1Nc2ccccc2/C1=C1/Nc2ccccc2C1=O` [INDIRUBIN], the figure is greater than 10 µM.
